Experiments:
Assay in all cases: relative viability (nuclei count vs DMSO), 5 days (fraction); higher = more cells survive
NCI-H838 = tested on: NCI-H838
Method in brief: (§1)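 For relative viability, nuclei counts in treated wells were divided by those in vehicle wells. Lung cancer cell lines had been pin-tool dosed in 1536-well plates the day after seeding and cultured for 5 days, then fixed and stained in one step (final 0.05% Triton X-100, 1% formaldehyde, 1 ug/ml Hoechst) and imaged at 4×. Doses were one drug alone or a fixed anchor-drug dose plus five library-drug doses (not always all listed) in √10 steps, and values are duplicate-plate medians.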

HCC-78 = tested on: HCC-78
Method in brief: as §1

NCI-H650 = tested on: NCI-H650
Method in brief: as §1

EPLC-272H = tested on: EPLC-272H
Method in brief: as §1

NCI-H1993 = tested on: NCI-H1993
Method in brief: as §1

COR-L23 = tested on: COR-L23
Method in brief: as §1

NCI-H2085 = tested on: NCI-H2085
Method in brief: as §1

SW 1573 = tested on: SW 1573
Method in brief: as §1

NCI-H358 = tested on: NCI-H358
Method in brief: as §1

PC-14 = tested on: PC-14
Method in brief: as §1

NCI-H2009 = tested on: NCI-H2009
Method in brief: as §1

NCI-H460 = tested on: NCI-H460
Method in brief: as §1

UMC-11 = tested on: UMC-11
Method in brief: as §1

LU99A = tested on: LU99A
Method in brief: as §1

NCI-H1915 = tested on: NCI-H1915
Method in brief: as §1

LC-2-ad = tested on: LC-2-ad
Method in brief: as §1

NCI-H2347 = tested on: NCI-H2347
Method in brief: as §1

ABC-1 = tested on: ABC-1
Method in brief: as §1

NCI-H2126 = tested on: NCI-H2126
Method in brief: as §1

HCC-15 = tested on: HCC-15
Method in brief: as §1

NCI-H1651 = tested on: NCI-H1651
Method in brief: as §1

HARA = tested on: HARA
Method in brief: as §1

## CC(C)Oc1cc(Nc2nc(N[C@@H](C)c3ccc(F)cn3)ncc2Cl)n[nH]1 [AZ23] + CS(=O)(=O)N1CCN(Cc2cc3nc(-c4cccc5[nH]ncc45)nc(N4CCOCC4)c3s2)CC1 [Pictilisib] (partner 1 µM)
NCI-H838; first compound 0.01 µM
  relative viability: 0.467
NCI-H838; first compound 0.03162 µM
  relative viability: 0.464
NCI-H838; first compound 0.3162 µM
  relative viability: 0.51
HCC-78; first compound 0.01 µM
  relative viability: 0.192
HCC-78; first compound 0.03162 µM
  relative viability: 0.195
HCC-78; first compound 0.3162 µM
  relative viability: 0.195
NCI-H650; first compound 0.01 µM
  relative viability: 0.841
NCI-H650; first compound 0.03162 µM
  relative viability: 0.869
NCI-H650; first compound 0.3162 µM
  relative viability: 1.1
EPLC-272H; first compound 0.01 µM
  relative viability: 0.258
EPLC-272H; first compound 0.03162 µM
  relative viability: 0.349
NCI-H1993; first compound 0.01 µM
  relative viability: 0.755
NCI-H1993; first compound 0.3162 µM
  relative viability: 0.869
COR-L23; first compound 0.01 µM
  relative viability: 0.587
COR-L23; first compound 0.03162 µM
  relative viability: 0.947
COR-L23; first compound 0.3162 µM
  relative viability: 0.862
NCI-H2085; first compound 0.01 µM
  relative viability: 0.556
NCI-H2085; first compound 0.03162 µM
  relative viability: 0.563
NCI-H2085; first compound 0.3162 µM
  relative viability: 0.446
SW 1573; first compound 0.01 µM
  relative viability: 0.674
SW 1573; first compound 0.03162 µM
  relative viability: 0.606
SW 1573; first compound 0.3162 µM
  relative viability: 0.455
NCI-H358; first compound 0.01 µM
  relative viability: 0.404
NCI-H358; first compound 0.03162 µM
  relative viability: 0.329
NCI-H358; first compound 0.3162 µM
  relative viability: 0.324
PC-14; first compound 0.01 µM
  relative viability: 0.757
PC-14; first compound 0.03162 µM
  relative viability: 0.689
PC-14; first compound 0.3162 µM
  relative viability: 0.739
NCI-H2009; first compound 0.01 µM
  relative viability: 0.943
NCI-H2009; first compound 0.03162 µM
  relative viability: 0.88
NCI-H2009; first compound 0.3162 µM
  relative viability: 0.854
NCI-H460; first compound 0.01 µM
  relative viability: 0.3
NCI-H460; first compound 0.03162 µM
  relative viability: 0.567
NCI-H460; first compound 0.3162 µM
  relative viability: 0.348
UMC-11; first compound 0.01 µM
  relative viability: 0.762
UMC-11; first compound 0.03162 µM
  relative viability: 0.963
UMC-11; first compound 0.3162 µM
  relative viability: 0.818
LU99A; first compound 0.01 µM
  relative viability: 0.292
LU99A; first compound 0.03162 µM
  relative viability: 0.386
LU99A; first compound 0.3162 µM
  relative viability: 0.294
NCI-H1915; first compound 0.01 µM
  relative viability: 0.988
NCI-H1915; first compound 0.03162 µM
  relative viability: 0.979
NCI-H1915; first compound 0.3162 µM
  relative viability: 0.945
LC-2-ad; first compound 0.01 µM
  relative viability: 0.386
LC-2-ad; first compound 0.03162 µM
  relative viability: 0.574
LC-2-ad; first compound 0.3162 µM
  relative viability: 0.357
NCI-H2347; first compound 0.01 µM
  relative viability: 0.525
NCI-H2347; first compound 0.03162 µM
  relative viability: 0.681
NCI-H2347; first compound 0.3162 µM
  relative viability: 0.543
ABC-1; first compound 0.01 µM
  relative viability: 0.634
ABC-1; first compound 0.03162 µM
  relative viability: 0.909
ABC-1; first compound 0.3162 µM
  relative viability: 0.841
NCI-H2126; first compound 0.01 µM
  relative viability: 0.485
NCI-H2126; first compound 0.03162 µM
  relative viability: 0.514
NCI-H2126; first compound 0.3162 µM
  relative viability: 0.452
HCC-15; first compound 0.01 µM
  relative viability: 0.968
HCC-15; first compound 0.03162 µM
  relative viability: 0.73
HCC-15; first compound 0.3162 µM
  relative viability: 0.782
NCI-H1651; first compound 0.01 µM
  relative viability: 0.443
NCI-H1651; first compound 0.03162 µM
  relative viability: 0.542
NCI-H1651; first compound 0.3162 µM
  relative viability: 0.665
HARA; first compound 0.01 µM
  relative viability: 0.421
HARA; first compound 0.03162 µM
  relative viability: 0.373
HARA; first compound 0.3162 µM
  relative viability: 0.282
